From patent US5968920A, “Compounds having a benzisoselen-azoline and -azine structure, method for preparing same and therapeutic uses thereof” (Oxis Isle of Man, Limited, priority 1994, dated 1999)

Legend:
[1] = Glutathione peroxidase activity, hydrogen peroxide; assay type: biochemical; settings: compound 20 μM, pH = 7.3, 37° C., [GSH] = 2 mM
Protocol: To 1.5 ml of HEPES buffer, 50 mM, pH=7.3, containing 0.2 mM of DTPA, 0.144 mM of NADPH, 2.2 mM of reduced glutathione and 1.1 U/ml of glutathione disulfide reductase, pre-equilibrated for 2 minutes at 37° C., 100 μl of an ethanolic mother solution of the compound to be tested or 100 μl of absolute ethanol (blank) was added. Each compound was tested at a final concentration of 20 μM.
Subsequently, 50 μl of the following was added:
or hydrogen peroxide (H2 O2), 1.6 mM in ultrapure water;
or the hydroperoxide of linoleic acid (18:2-OOH) prepared using soya lipoxygenase (see M. O. Funk et al., Lipids, (1976), 11, pp 113-117), 3.3 mM in a water/methanol mixture, 85/15 (V/V). The glutathione peroxidase activity was measured at 37° C. by measuring the reduction in absorbance at 340 nm over 5 minutes. The initial enzymatic rate or activity was proportional to the slope of the plot of absorbance against time.
They are expressed in nmoles of hydroperoxide reduced per minute.

endothelial cells = test: Viability of endothelial cells subjected to linoleic acid hydroperoxide (MTT); assay type: cell-based, human; settings: compound 4 μM, 1 h; 18:2-OOH 50 μM, 2 h; MTT after about twenty hours
Protocol: Human endothelial cells were cultivated at 37° C. in multi-hole plates or Petri dishes in an atmosphere of saturated humidity constituted by a gaseous mixture of 95% air and 5% of CO2. The culture medium was constituted by a M 199 medium, pH=7.4, containing 20% of foetal calf serum, 2 mM of L-glutamine, 100 U/ml of penicillin, 100 μg/ml of streptomycin and 1% by volume of a medium supplement containing heparin and a cell growth factor.
When the cells were near confluence, they were incubated for one hour in the presence or absence of one of the following compounds: BXT-51056, BXT-51072, BXT-51077, or ebelsen. Each of these compounds was incorporated at 4 μM into culture medium containing 2% of foetal calf serum, all other conditions being the same.
After washing the cells three successive times with a PBS buffer, they were incubated in the presence or absence (control) of linoleic acid hydroperoxide (18:2-OOH), 50 μM, in the culture medium defined above. […] After about twenty hours, the viability of the cells was determined by measurement using the bromide of 3-(4,5-dimethylthiazol-2-yl)-2,5-diphenyl-2H-tetrazolium (MTT).
The results are shown in FIG. 1, expressed as the survival percentage with respect to the control and where the reference is shown by the black rectangle.

rat = test: Tolerance after repeated oral administration to the rat in vivo; design: species or system Sprague-Dawley rat; settings: 14 days
Protocol: Male adult Sprague-Dawley rats were randomly divided into 4 groups. To one group of 10 rats and another group of 15 rats, one dose of 10 μmoles and one dose of 100 μmoles per kilogram of body weight of BXT-51072 were respectively orally administered (force feeding) each day for 14 days. These doses were administered using an aqueous solution containing 1% of sodium carboxymethylcellulose (CMC). Using the same procedure, a third group of 12 rats received only the vector (1% CMC) and a […] group of 3 rats received no force feeding.
In order to evaluate any toxicity in the test compound, all the animals were regularly weighed over the 14 days. Their appearance and behavior were observed daily.
About 16 hours after the final administration, the rats were anaesthetised with ketamine and blood samples were taken by intra-cardiac tapping to measure different hematological and biochemical parameters. The weight curves of the animals are shown in FIGS. 5 and 6 and Table 3 summarises the results of measurements carried out on the blood of the animals and the corresponding deviations.

[2] = 10 and 100 μmoles/kg oral daily

CC1(C)CN[Se]c2ccccc21 [BXT-51072, 4,4-dimethyl-benzisoselenazine]
Glutathione peroxidase activity, H2 O2 [1]: 42.0 nmoles of hydroperoxide reduced/min
protection of the cells from death induced by 18:2-OOH (endothelial cells): significantly protected the cells from death
BAS (basophiles) (rat; 10 μmoles/kg oral, n 4): 0%
EOS (eosinophiles) (rat; 10 μmoles/kg oral, n 4): 0%
GB (White cells) (rat; 10 μmoles/kg oral, n 4): 8.45 G/l
GR (Red cells) (rat; 10 μmoles/kg oral, n 4): 6.88 T/l
HB (Hemoglobin) (rat; 10 μmoles/kg oral, n 4): 9.08 mM
HCT (Hematocrit) (rat; 10 μmoles/kg oral, n 4): 0.41
LYM (Lymphocytes) (rat; 10 μmoles/kg oral, n 4): 82%
MON (Monocytes) (rat; 10 μmoles/kg oral, n 4): 0%
NEU (neutrophiles) (rat; 10 μmoles/kg oral, n 4): 18%
PAL (Alkaline phosphalase) (rat; 10 μmoles/kg oral, n 4): 320 Ul/l
PLT (Platelets) (rat; 10 μmoles/kg oral, n 4): 541 G/l
Urea (rat; 10 μmoles/kg oral, n 4): 4.03 mM
VGM (Average cell volume of GR) (rat; 10 μmoles/kg oral, n 4): 59.8 II
K^+ (rat; 10 μmoles/kg oral, n = 1): 5.0 mM
Na^+ (rat; 10 μmoles/kg oral, n = 1): 143 mM
Cl^- (rat; 10 μmoles/kg oral, n = 2): 93 mM
Prot (Proteins) (rat; 10 μmoles/kg oral, n = 2): 53.9 g/L
ALAT (Alanine aminotransferase) (rat; 10 μmoles/kg oral, n = 3): 50 Ul/l
ASAT (Aspartale aminotransferase) (rat; 10 μmoles/kg oral, n = 3): 136 Ul/l
weight gain (rat; 100 μmoles/kg oral daily): slight slowing in weight gain
BAS (basophiles) (rat; 100 μmoles/kg oral, n 7): 0%
EOS (eosinophiles) (rat; 100 μmoles/kg oral, n 7): 1%
GB (White cells) (rat; 100 μmoles/kg oral, n 7): 7.57 G/l
GR (Red cells) (rat; 100 μmoles/kg oral, n 7): 7.44 T/l
HB (Hemoglobin) (rat; 100 μmoles/kg oral, n 7): 9.46 mM
HCT (Hematocrit) (rat; 100 μmoles/kg oral, n 7): 0.43
LYM (Lymphocytes) (rat; 100 μmoles/kg oral, n 7): 81%
MON (Monocytes) (rat; 100 μmoles/kg oral, n 7): 0%
NEU (neutrophiles) (rat; 100 μmoles/kg oral, n 7): 18%
PLT (Platelets) (rat; 100 μmoles/kg oral, n 7): 517 G/l
VGM (Average cell volume of GR) (rat; 100 μmoles/kg oral, n 7): 57.6 II
K^+ (rat; 100 μmoles/kg oral, n = 2): 5.0 mM
Na^+ (rat; 100 μmoles/kg oral, n = 2): 143 mM
ALAT (Alanine aminotransferase) (rat; 100 μmoles/kg oral, n = 4): 58 Ul/l
ASAT (Aspartale aminotransferase) (rat; 100 μmoles/kg oral, n = 4): 133 Ul/l
Cl^- (rat; 100 μmoles/kg oral, n = 4): 93 mM
Prot (Proteins) (rat; 100 μmoles/kg oral, n = 4): 55.0 g/L
PAL (Alkaline phosphalase) (rat; 100 μmoles/kg oral, n = 5): 310 Ul/l
Urea (rat; 100 μmoles/kg oral, n = 5): 4.05 mM
mortality (rat; [2]): none of the animals had died
other signs of toxicity (rat; [2]): no other sign of toxicity
tolerance (rat; repeated oral administration): tolerated well
